The values below come from US8399462B2, “JNK modulators” (Roche Palo Alto LLC, priority 2006, dated 2013).

As for `CC(C)(O)c1cccc2c1cnn2-c1ccnc(N[C@H]2CC[C@H](N3CCCS3(=O)=O)CC2)n1` [Compound 207, 2-(1-{2-[4-(1,1-dioxo-isothiazolidin-2yl)-cyclohexylamino]-pyrimidin-4-yl}-1H-indazol-4-yl)-propan-2-ol], the melting point (commonly the temperature, or range, at which the solid turns liquid) lay within 204 to 205 °C.
The figure for `CC(C)(O)[C@H]1CC[C@H](Nc2nccc(-n3ccc4c(S(C)(=O)=O)cccc43)n2)CC1` [Compound 209, 2-{4-[4-(4-methane-sulfonyl-indol-1-yl)-pyrimidin-2-ylamino]-cyclohexyl}-propan-2-ol] is 217.8 to 218.5 °C; for `CC(C)(O)[C@H]1CC[C@H](Nc2nccc(-n3ncc4c(OCCCNS(C)(=O)=O)cccc43)n2)CC1` [Compound 210, N-[3-(1-{2-[4-(2-hydroxyprop-2-yl)-cyclohexylamino]-pyrimidin-4-yl}-1H-indazol-4-yloxy)-propyl]-methane-sulfonamide] it is 171 to 172 °C; for `C[S+]([O-])CCCOc1cccc2c1ccn2-c1ccnc(N[C@H]2CC[C@H](C(C)(C)O)CC2)n1` (stereo partly drawn) [Compound 211, 2-(4-{4-[4-(3-methane-sulfinyl-propoxy)-indol-1-yl]-pyrimidin-2-ylamino}-cyclohexyl)-propan-2-ol] it is 190.5 to 191 °C.
Regarding `CC(C)(O)c1cccc2c1cnn2-c1ccnc(N[C@H]2CC[C@H](NS(C)(=O)=O)CC2)n1` [Compound 212, N-(4-{4-[4-(2-hydroxy-prop-2-yl)-indazol-1-yl]-pyrimidin-2-ylamino}-cyclohexyl)-methanesulfonamide], the melting point lay in the range of 250 to 251 °C.
To `CC(=O)NCCCOc1cccc2c1cnn2-c1ccnc(N[C@H]2CC[C@H](N(C)S(C)(=O)=O)CC2)n1` [Compound 213, N-[3-(1-{2-[4-(methane-sulfonyl-methylamino)-cyclohexylamino]-pyrimidin-4-yl}-1H-indazol-4-yloxy)-propyl]-acetamide] belongs 226 to 227 °C; to `CS(=O)(=O)CCCOc1cccc2c1ccn2-c1ccnc(N[C@H]2CC[C@H](CO)CC2)n1` [Compound 214, (4-{4-[4-(3-methanesulfonyl-propoxy)-indol-1-yl]-pyrimidin-2-ylamino}-cyclohexyl)-methanol], 207 to 208 °C.
The compound `CS(=O)(=O)CCCOc1cccc2c1cnn2-c1ccnc(N[C@H]2CC[C@H](N3CCCS3(=O)=O)CC2)n1` [Compound 215, [4-(1,1-dioxo-isothiazolidin-2-yl)-cyclohexyl]-{4-[4-(3-methane-sulfonyl-propoxy)-indazol-1-yl]-pyrimidin-2-yl}-amine] showed a melting point of 206 to 207 °C.
`CC(=O)N[C@H]1CC[C@H](Nc2nccc(-n3ccc4c(S(C)(=O)=O)cccc43)n2)CC1` [Compound 218, N-{4-[4-(4-methane-sulfonyl-indol-1-yl)-pyrimidin-2-ylamino]-cyclohexyl}-acetamide] gave a melting point of 264 to 265 °C.
`COCCOc1cccc2c1ccn2-c1ccnc(N[C@H]2CC[C@H](NS(C)(=O)=O)CC2)n1` [Compound 221, N-(4-{4-[4-(2-methoxy-ethoxy)-indol-1-yl]-pyrimidin-2-ylamino}-cyclohexyl)-methanesulfonamide] registered a melting point of 203 to 205 °C.
In the case of `COCCOc1cccc2c1ccn2-c1ccnc(N[C@H]2CC[C@H](C(=O)N3CCC(O)CC3)CC2)n1` [Compound 222, (4-hydroxy-piperidin-1-yl)-(4-{4-[4-(2-methoxy-ethoxy)-indol-1-yl]-pyrimidin-2-ylamino}-cyclohexyl)-methanone], the melting point is 134 to 135 °C.
The figure for `CS(=O)(=O)CCCOc1cccc2c1ccn2-c1ccnc(N[C@H]2CC[C@H](C(=O)N3CC(O)C3)CC2)n1` [Compound 223, (3-hydroxy-azetidin-1-yl)-(4-{4-[4-(3-methane-sulfonyl-propoxy)-indol-1-yl]-pyrimidin-2-ylamino}-cyclohexyl)-methanone] is 152 to 153 °C.
In turn, `N#CCCCOc1cccc2c1cnn2-c1ccnc(N[C@H]2CC[C@H](C(=O)N3CCC(O)CC3)CC2)n1` [Compound 226, 4-(1-{2-[4-(4-hydroxy-piperidine-1-carbonyl)-cyclohexylamino]-pyrimidin-4-yl}-1H-indazol-4-yloxy)-butyro-nitrile] gave a melting point of 201 to 202 °C.
To `CC(C)(CO)COc1cccc2c1cnn2-c1ccnc(N[C@H]2CC[C@H](C(=O)N3CCC(O)CC3)CC2)n1` [Compound 227, (4-{4-[4-(3-hydroxy-2,2-dimethylpropoxy)-indazol-1-yl]-pyrimidin-2-ylamino}-cyclohexyl)-(4-hydroxy-piperidin-1-yl)-methanone] belongs 213 to 214.5 °C; to `CS(=O)(=O)N[C@H]1CC[C@H](Nc2nccc(-n3ncc4c(OCCCS(N)(=O)=O)cccc43)n2)CC1` [Compound 228, 3-{1-[2-(4-methane-sulfonylamino-cyclo-hexylamino)-pyrimidin-4-yl]-1H-indazol-4-yloxy}-propane-1-sulfonic acid amide], 250 to 251 °C.
Compound `CN(C)S(=O)(=O)CCCOc1cccc2c1cnn2-c1ccnc(N[C@H]2CC[C@H](C(=O)N3CCC(O)CC3)CC2)n1` [Compound 229, 3-(1-{2-[4-(4-hydroxy-piperidin-1-carbonyl)-cyclohexylamino]-pyrimidin-4-yl}-1H-indazol-4-yloxy)-propane-1-sulfonic acid dimethylamide] registered a melting point of 190 to 191 °C.
To `CS(=O)(=O)N[C@H]1CC[C@H](Nc2nccc(-n3ccc4c(C5(O)CCS(=O)(=O)CC5)cccc43)n2)CC1` [Compound 230, N-(4-{4-[4-(4-hydroxy-1,1-dioxohexahydro-thiopyran-4-yl)-indol-1-yl]-pyrimidin-2-yl-amino}-cyclohexyl)-methanesulfonamide] belongs above 300 °C; to `O=C([C@H]1CC[C@H](Nc2nccc(-n3ccc4c(C5(O)CCS(=O)(=O)CC5)cccc43)n2)CC1)N1CCC(O)CC1` [Compound 231, (4-{4-[4-(4-hydroxy-1,1-dioxo-hexahydro-thiopyran-4-yl)-indol-1-yl]-pyrimidin-2-yl-amino}-cyclohexyl)-(4-hydroxy-piperidin-1-yl)-methanone], 271 to 272 °C; to `O=C([C@H]1CC[C@H](Nc2nccc(-n3ccc4c(C5(O)CCOCC5)cccc43)n2)CC1)N1CCC(O)CC1` [Compound 232, (4-hydroxy-piperidin-1-yl)-(4-{4-[4-(4-hydroxy-tetrahydro-pyran-4-yl)-indol-1-yl]-pyrimidin-2-ylamino}-cyclohexyl)-methanone], 168 to 169 °C.
`CS(=O)(=O)N[C@H]1CC[C@H](Nc2nccc(-n3ccc4c(OCCCC(F)(F)F)cccc43)n2)CC1` [Compound 235, N-(4-{4-[4-(4,4,4-tri-fluoro-butoxy)-indol-1-yl]-pyrimidin-2-yl-amino}-cyclohexyl)-methanesulfonamide] gave a melting point of 241 to 242 °C.
As to `COCCCOc1cccc2c1ccn2-c1ccnc(N[C@H]2CC[C@H](NS(C)(=O)=O)CC2)n1` [Compound 236, N-(4-{4-[4-(3-methoxy-propoxy)-indol-1-yl]-pyrimidin-2-ylamino}-cyclohexyl)-methanesulfonamide], the melting point is 207 to 208 °C.
Take `CS(=O)(=O)CCCOc1cccc2c1ccn2-c1ccnc(N[C@H]2CC[C@H](C(=O)N3CCC(F)CC3)CC2)n1` [Compound 239, (4-fluoro-piperidin-1-yl)-(4-{4-[4-(3-methane-sulfonyl-propoxy)-indol-1-yl]-pyrimidin-2ylamino}-cyclohexyl)-methanone]: the melting point is 115 to 116 °C.
`CC(C)(O)c1cccc2c1ccn2-c1ccnc(N[C@H]2CC[C@H](N(CCO)S(C)(=O)=O)CC2)n1` [Compound 240, N-(2-hydroxyethyl)-N-(4-{4-[4-(2-hydroxy-prop-2-yl)-indol-1-yl]-pyrimidin-2-ylamino}-cyclohexyl)-methane-sulfonamide] returned a melting point of 214 to 215 °C.
In turn, `Oc1cccc2c1cnn2-c1ccnc(N[C@H]2CC[C@H](O)CC2)n1` [Compound 242, 1-[2-(4-hydroxy-cyclohexylamino)-pyrimidin-4-yl]-1H-indazol-4-ol] showed a melting point above 300 °C.
The figure for `NS(=O)(=O)CCCOc1cccc2c1cnn2-c1ccnc(N[C@H]2CC[C@H](C(=O)N3CCC(O)CC3)CC2)n1` [Compound 243, 3-(1-{2-[4-(4-hydroxy-piperidine-1-carbonyl)-cyclohexylamino]-pyrimidin-4-yl}-1H-indazol-4yloxy)-propane-1-sulfonic acid amide] is 237 to 238 °C; for `CS(=O)(=O)N[C@H]1CC[C@H](Nc2nccc(-n3cc(C#N)c4ccccc43)n2)CC1` [Compound 247, N-{4-[4-(3-cyano-indol-1-yl)-pyrimidin-2-ylamino]-cyclohexyl}-methanesulfonamide] it is above 300 °C.
The figure for `CN([C@H]1CC[C@H](Nc2nccc(-n3cc(C#N)c4ccccc43)n2)CC1)S(C)(=O)=O` [Compound 248, N-{4-[4-(3-cyano-indol-1-yl)-pyrimidin-2-ylamino]-cyclohexyl}-N-methyl-methane-sulfonamide] is 289 to 290 °C.
The figure for `N#Cc1cn(-c2ccnc(N[C@H]3CC[C@H](C(=O)N4CCC(O)CC4)CC3)n2)c2ccccc12` [Compound 249, 1-{2-[4-(4-hydroxy-piperidine-1-carbonyl)-cyclohexylamino]-pyrimidin-4-yl}-1H-indol-3-carbonitrile] is 259 to 260 °C.
Consider `CS(=O)(=O)CCCOc1cccc2c1ccn2-c1ccnc(N[C@H]2CC[C@H](C(N)=O)CC2)n1` [Compound 250, 4-{4-[4-(3-methane-sulfonyl-propoxy)-indol-1-yl]-pyrimidin-2-ylamino}-cyclohexane-carboxylic acid amide], for which the melting point was 249 to 250 °C.
The figure for `CN(C)C(=O)[C@H]1CC[C@H](Nc2nccc(-n3ccc4c(OCCCS(C)(=O)=O)cccc43)n2)CC1` [Compound 251, 4-{4-[4-(3-methane-sulfonyl-propoxy)-indol-1-yl]-pyrimidin-2-ylamino}-cyclohexane-carboxylic acid dimethylamide] is 169 to 170 °C.
